Experimental data from patent US20100178305A1, “ULTRASONIC NANOTHERAPY OF SOLID TUMORS WITH BLOCK COPOLYMERS STABILIZED PERFLUOROCARBON NANODROPLETS” (UNIVERSITY OF UTAH RESEARCH FOUNDATION, priority 2008, published 2010).

Tests used:
[1] = tested on: red fluorescent protein labeled MiaPaCa-2 cells; assay: Orthotopic pancreatic cancer model, chemotherapy with or without ultrasound; assay type: in vivo, Mice; details: no ultrasound treatment
Method: Orthotopic pancreatic cancer was inoculated surgically in the pancreatic tail. Mice received a single sub-capsular injection of 1×10^6 red fluorescent protein labeled MiaPaCa-2 cells suspended in 0.125 mL serum free media (DMEM). All procedures were done utilizing a 12× Universal S3B microscope.
Following the primary surgery, high resolution (3456 pixels×2304 pixels) whole body digital images (EOS Digital Rebel, Canon USA, Lake Success, N.Y.) of each mouse were obtained once a week to monitor primary tumor growth and presence of metastases. The red fluorescent protein was visualized with an Illumatool Bright Light System that consisted of a 563 nm excitation filter and a 587 nm emission filter (Model LT-9900, LightTools Research, Encinitas, Calif.). Animals were imaged under nose-cone induced isoflurane general anesthesia. Primary tumor area was quantified using public domain software ImageJ (National Institutes of Health http://rsb.info.nih.gov/ij/).
Animals were randomly assigned to six groups, six animals each: (1) negative control (injection of PBS); (2) GEM at 140 mg/kg (positive control 1); (3) GEN at 20 mg/kg as PTX (positive control 2); (4) GEM+GEN combination treatment; (5) GEN+ultrasound; (6) GEM+nbGEN+ultrasound. […] Nominal ultrasound intensity was 3.4 W/cm^2, which corresponded to a measured MI=0.59. […]

[2] = tested on: MDA MB231 breast cancer cell suspension; assay: Ultrasound-induced DOX transfer from bubble walls into cells (fluorescence); assay type: cell-based; details: 0.75 mg/ml Dox/0.5% PEG-PLLA/2% PFP formulation; 3-MHz ultrasound, 2 W/cm^2, 20% duty cycle, 30-s exposure
Description: (B) Fluorescence image of the MDA MB231 cell (thick arrow) and bubble (thin arrow) aggregates formed in the capillary during a 150-s sonication (corresponding to a 30-s ultrasound exposure time) by 3-MHz ultrasound at a 2 W/cm^2 nominal power density with a 20% duty cycle, with the focus on the bubbles. Ultrasound was applied directly to the slide through the Aquasonic coupling gel. (C) Fluorescence image of another cell aggregate of the same sample, with focus on the cells.
The elucidation of this problem would allow designing optimal ultrasound protocols. Previous data was re-evaluated. These experiments were performed by sonicating a nanodroplet/cell mixture placed in a plastic capillary (internal diameter 340 μm) of a snake mixer slide.

Compound | Ascitis in ultrasound images [1] | Cell fluorescence after sonication (DOX transfer into cells) [2]
Nc1ccn([C@@H]2O[C@H](CO)[C@@H](O)C2(F)F)c(=O)n1 [GEM, gemcitabine] | clearly visible | 
COc1cccc2c1C(=O)c1c(O)c3c(c(O)c1C2=O)C[C@@](O)(C(=O)CO)C[C@@H]3O[C@H]1C[C@H](N)[C@H](O)[C@H](C)O1 [DOX, doxorubicin] |  | acquired strong fluorescence
